This is an account of results in patent publication US20200253990A1, “ASPIRIN FORMULATION FOR INCREASED EFFICACY” (Vitalis LLC, priority 2013, published 2020).

The subject of one data set is Healthy human patients. Description: Niacin flush rated on the Global Flush Severity Scale (GFSS), Example 1. The data set is classed as in vivo. To be noted: then 500 mg niacin. The protocol: Healthy human patients were recruited for this study. […] Each patient was asked to rate his or her flush on the Global Flush Severity Scale (GFSS) (see FIG. 1 and Paolini et al. Int. J. Clin. Pract. 62(6):896-904 (2008)), when the flush completely resolved. The Global Flushing Severity Score measures, overall, in the previous 24 hours, how each patient rates the flushing symptoms, including redness, warmth, tingling, and itchiness of the skin. […] After the flush completely resolved, then each patient recorded his or her GFSS flush rating. Not until at least two days later did Period III start. At Period III, each patient was asked to not swallow the orally administered aspirin (81 mg) but to allow the aspirin to be absorbed through the oral mucosa. The aspirin was in powdered form and the remaining aspirin in the mouth was washed out with water. […] Still, the flush was rated (GFSS) after it was resolved. […] The flush was then rated (GFSS) after it completely resolved.

For data set [1], the system named is Healthy human patients who experience non-specific headaches. Description: Headache rated on 10-point scale, aspirin alone, Example 5. The class given is in vivo. To be noted: 30 minutes. The protocol: (§1) Healthy human patients who experience non-specific headaches were recruited for this study. […] Each patient was asked to rate his or her headache on the 10-point scale (see FIG. 3). The patient then swallowed 891 mg of aspirin (11 tablets of 81 mg each) without chewing. Each patient was asked to rate his or headache again on the 10-point scale 30-minutes later. […] The patient then chewed 891 mg of aspirin (11 tablets of 81 mg each) and rubbed the aspirin in their oral mucosa, lips, gums and mouth and was asked to be careful not to swallow any of the aspirin, but to wash out their mouth afterwards with a sip of soda and spitting out such that no aspirin was swallowed. Each patient was asked to rate his or headache again on the 10-point scale 30-minutes later. Not until at least two days later did Period III start. […] The patient then chewed 891 mg of aspirin (11 tablets of 81 mg each) and rubbed the aspirin in their oral mucosa, lips, gums and mouth for about 10 seconds or until half was dissolved, then to take a sip of soda to wash the rest, but this time to swallow the soda and aspirin such that half was swallowed. Each patient was asked to rate his or headache again on the 10-point scale 30-minutes later.

Data set [2] has the same test system. Description: Headache rated on 10-point scale, aspirin with acetaminophen and caffeine, Example 4. The class given is in vivo. To be noted: 30 minutes. The protocol: as §1, with “486” for “891”, “(6” for “(11”, “chewing, immediately followed by swallowing a combination of pill 1000 mg acetaminophen and 130 mg caffeine.” for “chewing.”, “swallowed. This was immediately followed by the patient swallowing a combination pill of 1000 mg acetaminophen and 130 mg caffeine.” for “swallowed.”

The conditions of data set [3]: cited from earlier work.
The mark [4] stands for this setting: Period II: 81 mg aspirin swallowed.
The mark [5] stands for this setting: Period IV: 81 mg aspirin half mucosally absorbed and half swallowed.

In the case of `CC(=O)Oc1ccccc1C(=O)O` [aspirin, acetylsalicylic acid], the “Global Flush Severity Scale (GFSS) average score” value in the data set with Healthy human patients (setting [4]) is recorded as 6.88; with Healthy human patients (Period III: 81 mg aspirin mucosally absorbed (not swallowed)), 5.06; in the data set on Healthy human patients (setting [5]), 3.94. Moreover, the figures for the “reduction of flush severity from Period I” value with Healthy human patients (setting [4]), in the data set on Healthy human patients (Period III: 81 mg aspirin mucosally absorbed) and with Healthy human patients (setting [5]) were 18%, 40% and 53%, respectively. Further, the decrease in headache is 53% in data set [1] (Period I: 891 mg aspirin swallowed); 57% in data set [1] (Period II: 891 mg aspirin chewed, oral mucosa only, none swallowed); 86% in data set [1] (Period III: 891 mg aspirin half dissolved in mouth, half swallowed); 55% in data set [2] (Period I: 486 mg aspirin swallowed + 1000 mg acetaminophen and 130 mg caffeine); 62% in data set [2] (Period II: 486 mg aspirin chewed, oral mucosa only, none swallowed + 1000 mg acetaminophen and 130 mg caffeine); 77% in data set [2] (Period III: 486 mg aspirin half dissolved in mouth, half swallowed + 1000 mg acetaminophen and 130 mg caffeine). Moreover, the “time to peak of aspirin serum levels following administration” value in data set [3] (GI-absorbed aspirin) is 15 to 20 min.

With `O=C(O)c1ccccc1O` [salicylic acid], in data set [3] (salicylic acid, metabolite of aspirin), the “time within which most of the elimination from the serum occurs” value was not above 20 min.
